{"source": "paper PMC13192270", "about": "“RhlR quorum-sensing receptor ligand sensitivity regulates the differential expression of phenazine genes in Pseudomonas aeruginosa” (Journal of Bacteriology, 2026)", "format_in_all_cases": "cell-based", "key": {"[1]": {"target": "T1, WT RhlR (Pseudomonas aeruginosa, UniProt P54292)", "T1 construct": "expressed in transfected cells; host or cells: E. coli carrying pBAD-A-rhlR, pCS26-prhlA-luxCDABE and pACYC-pqsE or empty pACYC", "T1 sequence (P54292 1-241)": "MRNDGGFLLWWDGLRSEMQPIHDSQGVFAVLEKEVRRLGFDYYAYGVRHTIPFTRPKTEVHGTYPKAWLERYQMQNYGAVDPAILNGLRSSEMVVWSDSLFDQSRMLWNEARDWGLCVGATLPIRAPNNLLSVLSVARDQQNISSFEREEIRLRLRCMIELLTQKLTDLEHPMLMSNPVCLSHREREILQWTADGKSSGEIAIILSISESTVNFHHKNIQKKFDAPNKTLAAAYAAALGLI", "assay": "E. coli prhlA-luxCDABE luciferase reporter assay", "description": "(§1) Previous analysis of the RhlR LBP focused on highly conserved residues that were known from other AHL-binding proteins to be important contacts for AHL molecules, particularly the lactone head group. We performed conservation analyses on 300 LuxR-type receptors to determine variable and moderately conserved residues in the LBP (Fig. 1B) and, in conjunction with our previously determined experimental structure of WT RhlR bound to the synthetic agonist mBTL, used for docking C4- and C6HSL. Based on our docking simulations, C4- and C6HSL occupy a similar position in the LBP as mBTL, a highly efficacious activator of RhlR (Fig. 1C; Fig. S1). We targeted residues A44, G46, T58, L69, Y72, D81, I84, W96, and W108 (Fig. 1B and C). These residues were selected because of their proximity to the acyl tail of C4HSL, as well as the differences in conservation that are observed at these sites. We used an E. coli luciferase reporter assay to monitor ligand-dependent activation of WT RhlR and RhlR variants. WT RhlR and RhlR variants were expressed under the control of an arabinose-inducible promoter (Fig. S2). Transcription was monitored by light production via the expression of the luxCDABE operon controlled by the RhlR-dependent promoter of rhlA. Binding of RhlR to the rhlA promoter is highly dependent on the C4HSL-RhlR interaction, based on ChIP-seq analyses performed in P. aeruginosa as well as previously published E. coli reporter systems ([34], [39]). After expressing WT RhlR and RhlR variants in the E. coli reporter system, we performed dose response assays using C4HSL to calculate the concentration of C4HSL required to activate the reporter system to 50% maximum levels (EC50 value; Table 1). As expected, transcription activation by WT RhlR increased with increased C4HSL levels, with an EC50 value of ~2 µM. We observed a range of responses. Figure 1C depicts the targeted residues, which are colored based on the effect of amino acid substitution.\n(§2) RhlR requires the accessory-binding protein, PqsE, for maximal activity. To determine if PqsE expression altered the activation of RhlR variants, we assessed AHL-dependent RhlR activation of the prhlA-luxCDABE reporter in the presence of a third plasmid that constitutively expresses PqsE in E. coli. […] RhlR variants that were still active but with increased EC50 values for C4HSL could have their activity enhanced by PqsE. […] Thus, alterations to the LBP can diminish the additive effect of PqsE-dependent transcription, indicating a potential role of allosteric conformational changes dependent on ligand occupancy. […] RhlR variants at residues I84 and W108 could not be activated by C4HSL, and thus, light levels remained low at all concentrations that were tested. Unlike the aforementioned variants, RhlR I84M/W and RhlR W108F/Y were activated by the expression of PqsE (Fig. S4).\n(§3) All E. coli strains in this study were grown overnight with shaking in 5 mL Luria-Bertani (LB) media supplemented with 100 µg/mL ampicillin, 50 µg/mL kanamycin, and 15 µg/mL tetracycline at 37°C overnight. Overnight cultures were diluted 1:100 into fresh media, grown at 37°C with shaking for 2 h until reaching OD600 = 0.4. Cultures were induced with a final concentration of 0.1% arabinose, and 198 μL of the induced culture was mixed with 2 μL of C4HSL dilutions in a clear-bottom, black-opaque 96-well plate (Corning) and grown at 37°C with shaking for 4 h. The C4HSL dilution series was performed 1:1 in dimethyl sulfoxide (DMSO) with a top final concentration of 10 μM. Luminescence and optical density were recorded using a Glomax (Promega) plate reader."}, "[2]": {"target": "T2, RhlR (I84W) (Pseudomonas aeruginosa, UniProt P54292, I84W)", "T2 construct": "expressed in transfected cells; host or cells: E. coli carrying pBAD-A-rhlR mutant, pCS26-prhlA-luxCDABE and pACYC-pqsE or empty pACYC", "assay": "E. coli prhlA-luxCDABE luciferase reporter assay", "conditions": "pqsE co-expressed", "description": "as §1, §2, §3"}, "[3]": {"target": "T3, RhlR (L69K) (Pseudomonas aeruginosa, UniProt P54292, L69K)", "T3 construct": "expressed in transfected cells; host or cells: E. coli carrying pBAD-A-rhlR mutant, pCS26-prhlA-luxCDABE and pACYC-pqsE or empty pACYC", "assay": "E. coli prhlA-luxCDABE luciferase reporter assay", "conditions": "pqsE co-expressed", "description": "as §1, §2, §3"}, "[4]": {"target": "T4, WT RhlR in ΔrhlI strain (Pseudomonas aeruginosa, UniProt P54292)", "T4 construct": "Comparison of ChIP enrichment from the ΔrhlI and ΔrhlI RhlR T58L strains; endogenous in cells; host or cells: P. aeruginosa UCBPP-PA14 ΔrhlI", "T4 sequence (P54292 1-241)": "T1 sequence (P54292 1-241)", "assay": "ChIP-seq of RhlR-binding sites", "conditions": "2 µM C4HSL", "method": "P. aeruginosa strains were grown overnight, back diluted 1:100 in fresh LB media, and grown to an OD600 = 2.0. Crosslinking, lysis, and immunoprecipitation were performed as previously described ([37])."}}, "note": "Like-named read-outs stand apart in the source and are kept apart here."}
{"smiles": "CCCC(=O)N[C@H]1CCOC1=O", "note": "[C4HSL, N-butyryl-L-homoserine lactone]", "values": [{"measurement": "EC50", "setting": "[1]; Vector (no pqsE), read-out: EC50", "value": 2.42, "unit": "µM"}, {"measurement": "EC50", "setting": "[1]; pqsE co-expressed, read-out: EC50", "value": 0.534, "unit": "µM"}, {"measurement": "C4HSL required for QS activation", "setting": "[1]; statement in discussion", "value": "> 1", "unit": "µM"}, {"measurement": "EC50", "setting": "[1]; without PqsE, read-out: EC50 value", "value": "~2", "unit": "µM"}, {"measurement": "EC50", "setting": "[2]", "value": 5.2, "unit": "µM"}, {"measurement": "EC50", "setting": "[3]", "value": 13.2, "unit": "µM"}, {"measurement": "ChIP-seq enrichment at PA14_01490 (rahU) (peak 139,733)", "setting": "[4]", "value": "1,797.7"}, {"measurement": "ChIP-seq enrichment at PA14_06320 (peak 560,072)", "setting": "[4]", "value": "1,705.2"}, {"measurement": "ChIP-seq enrichment at PA14_10360 (peak 895,433)", "setting": "[4]", "value": "1,134.9"}, {"measurement": "ChIP-seq enrichment at PA14_16100*, PA14_16110 (peak 1,372,370)", "setting": "[4]", "value": "1,180.9"}, {"measurement": "ChIP-seq enrichment at PA14_18800 (peak 1,620,628)", "setting": "[4]", "value": 664.1}, {"measurement": "ChIP-seq enrichment at PA14_18810 operon (peak 1,621,028)", "setting": "[4]", "value": 127.1}, {"measurement": "ChIP-seq enrichment at PA14_20130, PA14_20140 (fpr) (peak 1,735,823)", "setting": "[4]", "value": 258.2}, {"measurement": "ChIP-seq enrichment at PA14_21020 (azeB) operon, PA14_21030 (peak 1,816,906)", "setting": "[4]", "value": "4,251.6"}, {"measurement": "ChIP-seq enrichment at PA14_22090 (peak 1,921,598)", "setting": "[4]", "value": 402.5}, {"measurement": "ChIP-seq enrichment at PA14_28250*, PA14_28260 (peak 2,444,398)", "setting": "[4]", "value": 126.8}, {"measurement": "ChIP-seq enrichment at PA14_29620, fhp operon (peak 2,568,048)", "setting": "[4]", "value": "2,516.7"}, {"measurement": "ChIP-seq enrichment at PA14_30570, PA14_30580 (vqsR) (peak 2,647,472)", "setting": "[4]", "value": 770.7}, {"measurement": "ChIP-seq enrichment at PA14_30840* (peak 2,677,542)", "setting": "[4]", "value": "7,49.74"}, {"measurement": "ChIP-seq enrichment at PA14_37745 operon (peak 3,364,761)", "setting": "[4]", "value": 408.8}, {"measurement": "ChIP-seq enrichment at PA14_48140 operon (peak 4,285,523)", "setting": "[4]", "value": 311.1}, {"measurement": "ChIP-seq enrichment at PA14_48530 operon (peak 4,313,855)", "setting": "[4]", "value": 838.3}, {"measurement": "ChIP-seq enrichment at PA14_49310 (peak 4,382,169)", "setting": "[4]", "value": "1,250.8"}, {"measurement": "ChIP-seq enrichment at PA14_49740, PA14_49750 operon (peak 4,425,570)", "setting": "[4]", "value": "1,588.8"}, {"measurement": "ChIP-seq enrichment at PA14_57970*, PA14_57980 (peak 5,159,548)", "setting": "[4]", "value": 826}, {"measurement": "ChIP-seq enrichment at PA14_59180* (peak 5,268,881)", "setting": "[4]", "value": 381.4}, {"measurement": "ChIP-seq enrichment at PA_48530* (peak 4,314,560)", "setting": "[4]", "value": 258.8}, {"measurement": "ChIP-seq enrichment at arcD operon (peak 6,093,032)", "setting": "[4]", "value": "1,302.3"}, {"measurement": "ChIP-seq enrichment at hcnA operon, exoY (peak 3,236,436)", "setting": "[4]", "value": "2,43.83"}, {"measurement": "ChIP-seq enrichment at hsiA2 operon, hcpD (peak 3,831,541)", "setting": "[4]", "value": "1,370.2"}, {"measurement": "ChIP-seq enrichment at lasA (peak 3,600,666)", "setting": "[4]", "value": 239.4}, {"measurement": "ChIP-seq enrichment at lasB (peak 1,387,361)", "setting": "[4]", "value": 597.9}, {"measurement": "ChIP-seq enrichment at lecB, PA14_20620 operon (peak 1,774,336)", "setting": "[4]", "value": "16,502.8"}, {"measurement": "ChIP-seq enrichment at pa1L (peak 2,721,761)", "setting": "[4]", "value": 204.8}, {"measurement": "ChIP-seq enrichment at peak 5,414,219", "setting": "[4]", "value": 519}, {"measurement": "ChIP-seq enrichment at phzA1 operon, phzM (peak 813,529)", "setting": "[4]", "value": "5,438.8"}, {"measurement": "ChIP-seq enrichment at phzA2 operon (peak 3,561,969)", "setting": "[4]", "value": 575.2}, {"measurement": "ChIP-seq enrichment at phzB1*, phzC1 (peak 812,427)", "setting": "[4]", "value": "1,614.1"}, {"measurement": "ChIP-seq enrichment at phzB2*, phzC2 (peak 3,561,157)", "setting": "[4]", "value": 214.5}, {"measurement": "ChIP-seq enrichment at phzH (peak 64,211)", "setting": "[4]", "value": "1,937.1"}, {"measurement": "ChIP-seq enrichment at rhlA operon (peak 1,648,391)", "setting": "[4]", "value": "4,107.6"}, {"measurement": "ChIP-seq enrichment at rhlI (peak 1,651,804)", "setting": "[4]", "value": 562.1}, {"measurement": "ChIP-seq enrichment at rmlB operon (peak 6,082,366)", "setting": "[4]", "value": "2,46.6"}, {"measurement": "ChIP-seq enrichment at rpsL operon (peak 754,615)", "setting": "[4]", "value": 580.9}, {"measurement": "ChIP-seq enrichment at tnpS, tnpT operon (peak 3,188,223)", "setting": "[4]", "value": 365.2}]}
